{
  "source": "patent US20220380331A1",
  "about": "“TREATMENT OF CONDITIONS OF THE NERVOUS SYSTEM” (priority 2019, published 2022)",
  "key": {"[1]": {"tested_on": "perineuronal nets (PNNs) in the ventral horn", "assay": "Chronic PNNi treatment, immunohistochemistry of PNNs in the ventral horn 12 weeks post-injury", "type": "in vivo, rat", "conditions": "T4-6 sections", "description": "FIG. 15. Chronic PNNi treatment preferentially reduces expression of perineuronal nets (PNNs), labelled by key PNN components, in the ventral horn (VH). Rat spinal cord sections (T4-6) obtained at 12 weeks post-injury were stained and intensity was analysed in the VH. […] A transcardial perfusion (Gage et al., 2012) was then performed using sodium phosphate buffer (PB; 0.12 M sodium phosphate monobasic; 0.1 M NaOH; pH 7.4) followed by 4% paraformaldehyde (PFA; in PB; pH 7.4) for tissue fixation. The brain and spinal cord were dissected out, post-fixed in PFA (4%; 4° C.) overnight and cryoprotected in 30% sucrose solution (30% v/w sucrose in PB; 4° C.) until tissue saturation. The left brain hemisphere and appropriate spinal cord segments were excised and frozen in optimum temperature medium (OCT; Leica FSC 22 Frozen Section Media; Leica Biosystems) before storage at -80° C. until sectioning. […] Total number of neurones and the number of neurones surrounded by PNNs were quantified by two independent researchers, blinded to the study. Results were analysed with one-way ANOVA for statistical significance. […] Rat spinal cord sections (T4-6) obtained at 12 weeks post-injury were stained and intensity was analysed in the VH."}, "mouse": {"tested_on": "mouse", "conditions": "in vivo, po; cited from earlier work"}, "[2]": {"tested_on": "acute contusive spinal cord injury", "assay": "Basso, Beattie and Bresnahan (BBB) HL locomotor open field test after moderate T9 contusion injury", "type": "in vivo, rat", "conditions": "daily oral treatment, 5 weeks after injury, vehicle ~10", "description": "Adult female Lister-hooded rats (200-250 g) were obtained from Charles River Laboratories (Canterbury, UK). Rats were housed in pairs in Central Biomedical Services (University of Leeds, UK) in a temperature-controlled environment in (20±1° C.), with a 12 hr light/dark cycle (lights on at 07:00). All procedures and experiments complied with the UK Animals (Scientific Procedures) Act 1986. Using isofluorane as an anaesthetic (5% in 02 for induction and 1-2% in 02 for the duration of the procedure), animals were shaved and sterilised. Vertebral segments T7-13 were exposed and a dorsal laminectomy was performed at T8. Vertebral levels T7 and T8 were stabilised whilst an Infinite Horizon impactor (Precision Systems and Instrumentation, LLC, Fairfax Station, Va.) was used to provide a 200 kdyn Cx (moderate injury) at the level of T9. Muscles were sutured and the skin was closed with autoclips. Analgesia ([…] Buprenorphine; 0.015 mg/kg; Henry Schein Animal Health, Dumfries, UK) and antibiotics (Baytril enrofloxacin; 2.5 mg/kg; Henry Schein Animal Heath, Dumfries, UK) were given via subcutaneous injection immediately post-surgery and for three days following surgery. […] HL locomotor ability was assessed at various time points throughout the acute SCI paradigm using the BBB HL locomotor scale. […] Each BBB test was simultaneously assessed by two individuals. […]"}, "rat": {"tested_on": "rat", "conditions": "in vivo, po; cited from earlier work"}, "[3]": {"conditions": "Nagy et al., 2015; cited from earlier work"}},
  "data": [
    {"compound": "Cc1cc(=O)oc2cc(O)ccc12", "note": "[PNNi, 4-methylumbelliferone]", "values": [
      {"measurement": "number of PNNs labelled by ACAN and WFA in the ventral horn", "setting": "[1]", "value": "partially decreases number of PNNs"},
      {"measurement": "lethal dose", "setting": "mouse", "value": 7500, "unit": "mg/kg"},
      {"measurement": "BBB score", "setting": "[2]", "value": "~15", "unit": "scores"},
      {"measurement": "lethal dose", "setting": "rat", "value": 6200, "unit": "mg/kg"},
      {"measurement": "solubility in aqueous solution", "setting": "[3]", "value": "near insoluble"}
    ]}
  ]
}
